Test results: US8101598B2 (priority 2006, dated 2012)
Where a name gives a salt, the structure may show the parent alone.

Biological target: α7-subtype of nicotinic receptors (Rattus norvegicus, UniProt Q05941)
Test: biochemical
Assay type: binding

α7-subtype of nicotinic receptors, sequence (Q05941 23-502): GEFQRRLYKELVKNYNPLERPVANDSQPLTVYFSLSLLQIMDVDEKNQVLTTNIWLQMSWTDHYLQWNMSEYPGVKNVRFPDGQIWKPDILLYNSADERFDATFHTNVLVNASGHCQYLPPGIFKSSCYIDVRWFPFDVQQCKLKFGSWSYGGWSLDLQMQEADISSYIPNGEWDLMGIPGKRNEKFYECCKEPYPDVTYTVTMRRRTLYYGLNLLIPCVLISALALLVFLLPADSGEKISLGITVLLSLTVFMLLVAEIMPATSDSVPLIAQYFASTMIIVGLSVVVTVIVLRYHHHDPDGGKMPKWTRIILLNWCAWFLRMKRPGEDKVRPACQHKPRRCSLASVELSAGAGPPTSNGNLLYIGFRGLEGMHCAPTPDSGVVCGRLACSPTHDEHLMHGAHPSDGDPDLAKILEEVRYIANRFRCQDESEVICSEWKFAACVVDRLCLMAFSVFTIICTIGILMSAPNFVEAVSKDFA

SMILES: c1cc2c(cc1-c1nnc(N3CCN4CCC3CC4)o1)OCO2 [Compound A1, 4-(5-Benzo[1,3]-dioxol-5-yl-[1,3,4]oxadiazol-2-yl)-1,4-diaza-bicyclo[3.2.2]nonane Fumaric Acid Salt]
- IC50: < 10 nM
